A short description of the test: Displacement of [125I]-ASOR from asialoglycoprotein receptor in mouse parenchymal liver cells after 2 hrs. (Displacement assays read how much labelled ligand stays bound in the presence of the test substance.)

Regarding `COc1cc2c(c(OC)c1OC)-c1ccc(OC)c(=O)cc1[C@@H](NC(=O)CCSSCCC(=O)NC(CCCCNC(=O)[C@@H](CCCCNC(=O)CCCCO[C@@H]1O[C@H](CO)[C@H](O)[C@H](O)[C@H]1NC(C)=O)NC(=O)CCCCO[C@@H]1O[C@H](CO)[C@H](O)[C@H](O)[C@H]1NC(C)=O)C(=O)O)CC2` (stereo partly specified), the Ki (usually a dissociation constant, usually derived from enzyme kinetics or from competition with a known ligand) stood at 4.5 nM.

Source of the values: ChEMBL document CHEMBL4145450, “Colchicine prodrugs and codrugs: Chemistry and bioactivities” (Eur J Med Chem, 2018).
